This is an account of results in paper PMC7139904, “Structural Requirements of Benzofuran Derivatives Dehydro-δ- and Dehydro-ε-Viniferin for Antimicrobial Activity Against the Foodborne Pathogen Listeria monocytogenes” (International Journal of Molecular Sciences, 2020).

≈ marks a conversion by molar mass, not a printed value. Entries after “also recorded” stand apart in the source; their conditions may differ. Where two headings read alike, the source gives them in different places. Marks after values point to notes of the source that are not given here.

The test system of data set [1] is L. monocytogenes Scott A. Briefly: Minimal inhibitory concentration (MIC) and minimal bactericidal concentration (MBC), 96-well plate broth assay. It is filed as cell-based, Listeria monocytogenes. The settings on record: for MBC: value in brackets. Here is the method: All synthesized derivatives were stored in dry form at -20 °C and dissolved in DMSO at a final concentration of 4.096 mg/mL prior to their use in the MIC and MBC determination. Briefly, L. monocytogenes was cultivated in Brain […] Infusion (BHI) broth (Sigma, Italy) at 37 °C for 24 h under a shaking condition (200 rpm). After the growth, the cells were diluted in BHI to 0.2 OD 600 nm and then used for the 96-well plate inoculum. The concentrations tested ranged from 1 up to 512 μg/mL. The assay was carried out in triplicate in a 96-well plate, according to Mattio et al., 2019 [4].

Data set [2] relates to WS1 fibroblast cells. Briefly: Cytotoxicity, growth inhibition assay (MTS) on normal skin fibroblasts. It is filed as cell-based, human. The settings on record: for IC50: WS1 cells, 48 h exposure, MTS assay, mean ± SD of three independent experiments; for Selectivity: concentration with cytotoxic effects on WS1 relative to MIC against L. monocytogenes: WS1 IC50 (µM) compared with MIC (µM) on L. monocytogenes Scott A. Here is the method: (§1) The normal human skin WS1 fibroblast cells (ATCC CRL-1502) were cultured in Eagle’s Minimum Essential Medium plus 10% fetal bovine serum at 37 °C and 5% CO2. Cytotoxic potency was assessed by a growth inhibition assay (CellTiter 96® AQueous One Solution Cell Proliferation Assay MTS, Promega). The cells were seeded in a 96-well plate, and 24 h later were exposed to the compounds (concentration range 1−200 μM). After 48 h of exposure, 20 μL of 3-(4,5-dimethylthiazol-2-yl)-5-(3-carboxymethoxyphenyl)-2-(4-sulfophenyl)-2H-tetrazolium salt was added to each well. The absorbance was measured using a FLUOstar OPTIMA plate reader (BMG Labtech GmbH, Offenburg, Germany) at 492 nm after 4 h of incubation at 37 °C in 5% CO2. The IC50 was defined as the drug concentration causing 50% cell growth inhibition, determined by the dose−response curves. Experiments were performed in triplicate.
(Formazan colour is commonly taken as a measure of viable cells.)

Test in data set [3]: as above
In kind it is cell-based, human. The settings on record: human, WS1 normal skin fibroblast cells; WS1 IC50 (µM) compared with MIC (µM) on L. monocytogenes Scott A; read-out: Selectivity: concentration with cytotoxic effects on WS1 relative to MIC against L. monocytogenes. Here is the method:
as §1

The subject of data set [4] is L. monocytogenes LMG 16,779. Details: method as in PMID 26867522. The settings on record: cited from earlier work.
[5] abbreviates: Listeria monocytogenes, 24 h, BHI broth, tested 1 up to 512 µg/mL, triplicate, read-out: MIC.
Setting [6] is: Listeria monocytogenes, BHI broth, tested 1 up to 512 µg/mL, triplicate, read-out: MIC.
Where [7] appears, read: Listeria monocytogenes, MIC as µM concentration, read-out: MIC.
Setting [8] is: Listeria monocytogenes, tested 1 up to 512 µg/mL, triplicate, read-out: MBC.
Where [9] appears, read: BHI broth, tested 1 up to 512 µg/mL, triplicate.
The mark [10] stands for this setting: MIC as µM concentration, read-out: MIC.
[11] abbreviates: tested 1 up to 512 µg/mL, triplicate.

Turning to `Oc1ccc(-c2oc3ccccc3c2-c2cc(O)cc(O)c2)cc1` [Compound 3], the MIC in data set [1] (setting [5]) was found to be 16 µg/mL; in data set [1] (setting [6]) it was 16 µg/mL; in data set [1] (setting [7]), 50.3 µM. Besides, in data set [1] (setting [8]), the MBC amounted to 64 µg/mL (≈ 201 µM). In addition, in data set [2] (Homo sapiens, WS1, 48 h), the IC50 (in general, the concentration needed to halve the response being measured) was 98.7 ± 1.8 µM. Also, the “Selectivity: concentration with cytotoxic effects on WS1 relative to MIC against L. monocytogenes” value in data set [2] is “two-fold higher; also recorded: at least two-times higher”.

Consider `COc1cc(/C=C/c2ccc(O)cc2)cc(OC)c1` [pterostilbene, reference compound], for which the MIC worked out at 64 µg/mL in data set [1] (setting [5]), 64 µg/mL in data set [1] (setting [6]) and 250 µM in data set [1] (setting [7]). In addition, the MBC in data set [1] (setting [8]) came out at 128 µg/mL (≈ 499 µM). In data set [2] (Homo sapiens, WS1, 48 h), the IC50 came out at 57 ± 10 µM.

Consider `Oc1ccc(/C=C/c2cc(O)cc3oc(-c4ccc(O)cc4)c(-c4cc(O)cc(O)c4)c23)cc1` [Compound 2, viniferifuran], for which the results for the MIC in data set [1] (setting [5]), in data set [1] (setting [6]) and in data set [1] (setting [7]) were 16 µg/mL, 16 µg/mL and 35.4 µM, respectively. In data set [1] (setting [8]), the MBC was greater than 512 µg/mL. The same compound gave an IC50 in data set [2] (Homo sapiens, WS1, 48 h) of 33 ± 1.4 µM.

In the case of `[H]/N=C(\N/C(=N/[H])NCCCCCCNC(=N)NC(=N)Nc1ccc(Cl)cc1)Nc1ccc(Cl)cc1` [Chlorhexidine, reference compound], the MIC in data set [1] (setting [6]) was determined as 8 µg/mL; in data set [1] (setting [7]), 15.8 µM. Besides, in data set [1] (setting [8]), the MBC was 32 µg/mL (≈ 63.3 µM).

`Oc1ccc(-c2cc3cc(/C=C/c4cc(O)cc(O)c4)ccc3o2)cc1` [Compound 4]: in data set [1], the “Antimicrobial activity, result in words” value was “completely inactive”. For the same compound, the MIC amounted to 256 µg/mL in data set [1] (setting [5]), 256 µg/mL in data set [1] (setting [6]) and 743 µM in data set [1] (setting [7]). Moreover, the MBC in data set [1] (setting [8]) is greater than 512 µg/mL. The compound also had an IC50 in data set [2] (Homo sapiens, WS1, 48 h) of 97.8 ± 3 µM.

Turning to `Oc1ccc(-c2oc3ccc(/C=C/c4cc(O)cc(O)c4)cc3c2-c2cc(O)cc(O)c2)cc1` [Compound 1, dehydro-δ-viniferin], the MIC in data set [1] (setting [5]) stood at 2 µg/mL; in data set [1] (setting [6]), 2 µg/mL; in data set [1] (setting [7]), 4.42 µM. Also, the MBC in data set [1] (setting [8]) amounted to 16 µg/mL (≈ 35.4 µM). For the same compound, the selectivity ratio at 48 h in data set [3] was roughly 10. The compound further showed an IC50 in data set [2] (Homo sapiens, WS1, 48 h) of 37 ± 1.4 µM.

With `Oc1ccc(-c2oc3cc(O)ccc3c2-c2cc(O)cc(O)c2)cc1` [Compound 6], the MIC in data set [1] (setting [5]) is 64 µg/mL; in data set [1] (setting [6]) it was 64 µg/mL; in data set [1] (setting [7]), 191 µM. The MBC in data set [1] (setting [8]) was greater than 512 µg/mL. Also, the IC50 in data set [2] (Homo sapiens, WS1, 48 h) is 98.5 ± 2 µM.

As to `Oc1ccc(/C=C/c2cc(O)cc3occ(-c4cc(O)cc(O)c4)c23)cc1` [Compound 7], the MIC was determined as 8 µg/mL in data set [1] (setting [9]) and 23.2 µM in data set [1] (setting [10]). For the same compound, the MBC in data set [1] (setting [11]) amounted to 64 µg/mL (≈ 178 µM). The compound further had an IC50 in data set [2] (Homo sapiens, WS1, 48 h) of 45 ± 1.2 µM. The “Selectivity: concentration with cytotoxic effects on WS1 relative to MIC against L. monocytogenes” value in data set [2] is on record as “two-fold higher; also recorded: at least two-times higher”.

`Oc1ccc(/C=C/c2cc(O)cc3occ(-c4cc(O)cc(O)c4)c23)cc1` [Compound 8]: the MIC in data set [1] (setting [9]) came out at 64 µg/mL; in data set [1] (setting [10]) it was 178 µM. The MBC in data set [1] (setting [11]) is reported as greater than 512 µg/mL. Besides, in data set [2], half-maximal inhibition (IC50) required 85 ± 4.6 µM.

On to `Oc1cc(O)cc(/C=C/c2ccc3occ(-c4cc(O)cc(O)c4)c3c2)c1` [Compound 5], for which the MIC was found to be 16 µg/mL in data set [1] (setting [6]) and 44.4 µM in data set [1] (setting [7]). The MBC in data set [1] (setting [8]) worked out at 64 µg/mL (≈ 178 µM). Besides, in data set [2] (Homo sapiens, WS1, 48 h), the IC50 worked out at 96.8 ± 4.5 µM. Moreover, the “Selectivity: concentration with cytotoxic effects on WS1 relative to MIC against L. monocytogenes” value in data set [2] was “two-fold higher; also recorded: at least two-times higher”.

In data set [2] (Homo sapiens, WS1, 48 h), `Oc1ccc(/C=C/c2cc(O)cc(O)c2)cc1` [resveratrol] had an IC50 greater than 200 µM. Besides, the “MIC” value in data set [4] (MIC as µM concentration) was 876 µM (≈ 200 µg/mL); in data set [4], 200 (-) ^c µg/mL.

On to `COc1ccc(-c2oc3cc(OC)ccc3c2-c2cc(OC)cc(OC)c2)cc1` [Compound 11], for which, in data set [1], the “Antimicrobial activity, result in words” value is “inactive”. Besides, the MIC was greater than 256 µg/mL in data set [1] (setting [6]) and 656 µM in data set [1] (setting [7]). Also, the MBC in data set [1] (setting [8]) is greater than 256 µg/mL. The compound also came in with a half-maximal inhibitory concentration (IC50) in data set [2] (Homo sapiens, WS1, 48 h) greater than 100 µM.

With `COc1cc(/C=C/c2ccc3oc(-c4ccc(O)cc4)cc3c2)cc(OC)c1` [Compound 9], the “Antimicrobial activity, result in words” value in data set [1] was “inactive”. Further, the figures for the MIC in data set [1] (setting [5]), in data set [1] (setting [6]) and in data set [1] (setting [7]) were greater than 512 µg/mL, greater than 512 µg/mL and 1370 µM, respectively. Moreover, the MBC in data set [1] (setting [8]) was greater than 512 µg/mL; in data set [1] (setting [11]) it was >512 (>512) µg/mL. In addition, 95 ± 2.3 µM corresponded to half-maximal inhibition in data set [2] (Homo sapiens, WS1, 48 h) (IC50).

As to `COc1ccc(-c2cc3cc(/C=C/c4cc(OC)cc(OC)c4)ccc3o2)cc1` [Compound 10], the “Antimicrobial activity, result in words” value in data set [1] was “inactive”. In addition, the MIC in data set [1] (setting [6]) was greater than 256 µg/mL; in data set [1] (setting [7]), 662 µM. Further, the MBC in data set [1] (setting [8]) is greater than 256 µg/mL. For the same compound, in data set [2] (Homo sapiens, WS1, 48 h), the IC50 is greater than 100 µM.
